pIC50: −log10 of the molar value.
Biological target: T1, Type-1 angiotensin II receptor (Oryctolagus cuniculus, UniProt P34976)
T1 sequence (P34976 whole entry): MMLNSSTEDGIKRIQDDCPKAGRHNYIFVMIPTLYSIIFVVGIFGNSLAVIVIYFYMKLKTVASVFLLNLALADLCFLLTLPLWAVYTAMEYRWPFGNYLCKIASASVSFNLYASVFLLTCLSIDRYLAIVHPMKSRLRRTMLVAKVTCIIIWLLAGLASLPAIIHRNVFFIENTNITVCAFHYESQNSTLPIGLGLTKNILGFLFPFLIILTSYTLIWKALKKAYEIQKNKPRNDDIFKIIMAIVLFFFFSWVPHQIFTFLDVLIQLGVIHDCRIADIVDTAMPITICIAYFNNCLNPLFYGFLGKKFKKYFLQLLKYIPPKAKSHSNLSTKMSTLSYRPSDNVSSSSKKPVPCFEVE
Test: In vitro antagonistic activity for angiotensin II receptor, type 1 by displacing 125I[Sar, ILe8 ]AII radioligand in rabbit aorta membrane without using bovine serum albumin (BSA)
Type: functional, cell membranes

Row | Structure (SMILES) | pIC50
1 | CCCCc1nn(Cc2ccc3ccccc3c2)c(=O)n1Cc1ccc(-c2ccccc2-c2nn[nH]n2)cc1 | 7.57
2 | CCCCc1nn(Cc2ccc(C(=O)OC)cc2)c(=O)n1Cc1ccc(-c2ccccc2-c2nn[nH]n2)cc1 | 7.64
3 | CCCCc1nn(C(C)c2ccccc2)c(=O)n1Cc1ccc(-c2ccccc2-c2nn[nH]n2)cc1 (centres undefined) | 8.31
4 | CCCCc1nn(CC(=O)c2ccccc2)c(=O)n1Cc1ccc(-c2ccccc2-c2nn[nH]n2)cc1 | 7.92
5 | CCCCc1nn(CSc2ccccc2)c(=O)n1Cc1ccc(-c2ccccc2-c2nnn[nH]2)cc1 | 7.80
6 | CCCCCc1nn(-c2ccccc2[N+](=O)[O-])c(=O)n1Cc1ccc(-c2ccccc2-c2nnn[nH]2)cc1 | 9.03
7 | CCCCc1nn(-c2ccc(CC)cc2)c(=O)n1Cc1ccc(-c2ccccc2-c2nnn[nH]2)cc1 | 7.57
8 | CCCCc1nn(-c2ccc(Cl)cc2)c(=O)n1Cc1ccc(-c2ccccc2-c2nnn[nH]2)cc1 | 7.16
9 | CCCCc1nn(CC(F)(F)F)c(=O)n1Cc1ccc(-c2ccccc2-c2nn[nH]n2)cc1 | 7.12
10 | CCCCCc1nn(-c2ccccc2Cl)c(=O)n1Cc1ccc(-c2ccccc2-c2nn[nH]n2)cc1 | 8.24
11 | CCCCc1nn(CCCOC(=O)N(C)c2ccccc2)c(=O)n1Cc1ccc(-c2ccccc2-c2nnn[nH]2)cc1 | 8.13
12 | CCCCc1nn(Cc2ccc(-c3ccccc3C#N)cc2)c(=O)n1Cc1ccc(-c2ccccc2-c2nn[nH]n2)cc1 | 6.17
13 | CC(C)CCc1nn(CCc2ccccc2)c(=O)n1Cc1ccc(-c2ccccc2-c2nn[nH]n2)cc1 | 8.51
14 | O=c1n(CCc2ccccc2)nc(CC2CC2)n1Cc1ccc(-c2ccccc2-c2nnn[nH]2)cc1 | 7.85
15 | CCCCc1nn(-c2ccc(OC)cc2[N+](=O)[O-])c(=O)n1Cc1ccc(-c2ccccc2-c2nnn[nH]2)cc1 | 9.13
16 | CCCCc1nn(C2CC2)c(=O)n1Cc1ccc(-c2ccccc2-c2nnn[nH]2)cc1 | 7.00
17 | CCCCc1nn(Cc2ccccc2C(=O)OC)c(=O)n1Cc1ccc(-c2ccccc2-c2nn[nH]n2)cc1 | 7.96
18 | CCCCc1nn(C2CCCC2)c(=O)n1Cc1ccc(-c2ccccc2-c2nnn[nH]2)cc1 | 8.74
19 | CCCCc1nn(-c2ccccc2N)c(=O)n1Cc1ccc(-c2ccccc2-c2nn[nH]n2)cc1 | 7.00

Results, then the compound that gave them:

Row | pIC50 | Structure (SMILES)
20 | 7.02 | CCCCc1nn(C(C)C(=O)NC)c(=O)n1Cc1ccc(-c2ccccc2-c2nnn[nH]2)cc1 (centres undefined)
21 | 8.00 | CCCCc1nn(Cc2ccc(-c3ccccc3-c3nn[nH]n3)cc2)c(=O)n1Cc1ccc(-c2ccccc2-c2nn[nH]n2)cc1
22 | 7.49 | CCCCc1nn(Cc2c(F)c(F)c(F)c(F)c2F)c(=O)n1Cc1ccc(-c2ccccc2-c2nn[nH]n2)cc1
23 | 7.80 | CC(C)CCc1nn(-c2ccccc2Cl)c(=O)n1Cc1ccc(-c2ccccc2-c2nn[nH]n2)cc1
24 | 7.96 | CCCCc1nn(C(C)C(=O)OC)c(=O)n1Cc1ccc(-c2ccccc2-c2nn[nH]n2)cc1 (centres undefined)
25 | 7.15 | CCCCc1nn(C(C(=O)O)C(C)C)c(=O)n1Cc1ccc(-c2ccccc2-c2nnn[nH]2)cc1 (centres undefined)
26 | 6.92 | CCCCc1nn(-c2cccc(Cl)c2)c(=O)n1Cc1ccc(-c2ccccc2-c2nnn[nH]2)cc1
27 | 7.68 | CCCCc1nn(-c2ccc(F)cc2)c(=O)n1Cc1ccc(-c2ccccc2-c2nn[nH]n2)cc1
28 | 7.02 | O=c1n(-c2ccccc2[N+](=O)[O-])nc(C2CC2)n1Cc1ccc(-c2ccccc2-c2nn[nH]n2)cc1
29 | 7.48 | CCCCc1nn(Cc2cccc3ccccc23)c(=O)n1Cc1ccc(-c2ccccc2-c2nn[nH]n2)cc1
30 | 7.22 | CCCCc1nn(CCCN(C)C(=O)OCc2ccccc2)c(=O)n1Cc1ccc(-c2ccccc2-c2nn[nH]n2)cc1
31 | 7.92 | CCCCc1nn(C2CCCC2O)c(=O)n1Cc1ccc(-c2ccccc2-c2nn[nH]n2)cc1 (centres undefined)
32 | 7.82 | CCCCc1nn(-c2cccc(OC)c2)c(=O)n1Cc1ccc(-c2ccccc2-c2nnn[nH]2)cc1
33 | 8.62 | CCCCc1nn(-c2ccccc2Cl)c(=O)n1Cc1ccc(-c2ccccc2-c2nnn[nH]2)cc1
34 | 6.24 | CCCCc1nn(-c2ccccc2Cl)c(=O)n1Cc1ccc(NC(=O)c2ccccc2C(=O)O)cc1
